According to PubChem BioAssay AID256 (DTP/NCI, 2004):
Where “and” joins values, the source holds several entries; their conditions need not be identical. Equal values may be shown once. Toxic doses and inconclusive results are not listed. Rule for the calls: active = survival T/C of 150% or more; inactive = T/C below 125% in these data.

Tested on: CD2F1 mice, L1210 leukemia ip, survival T/C
Experiment: NCI In Vivo Anticancer Drug Screen. Data for tumor model L1210 Leukemia (intraperitoneal) in CD2F1 (CDF1) mice
Details: higher = longer survival
Procedure, shortened: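 Antitumor effect is scored in animals hosting a serially transplanted tumor. Values compare compound-dosed animals against vehicle-only controls as a simple quotient.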

[1] = endpoint: mean survival time, dose: 100.0 mg/kg/injection, schedule: Q04DX003 (ip), vehicle: saline with Tween-80
[2] = endpoint: mean survival time, dose: 200.0 mg/kg/injection, schedule: Q04DX003 (ip), vehicle: saline with Tween-80
[3] = endpoint: mean survival time, dose: 400.0 mg/kg/injection, schedule: Q04DX003 (ip), vehicle: saline with Tween-80
[4] = endpoint: mean survival time, dose: 12.5 mg/kg/injection, schedule: Q01DX009 (ip), vehicle: saline
[5] = endpoint: mean survival time, dose: 25.0 mg/kg/injection, schedule: Q01DX009 (ip), vehicle: saline
[6] = endpoint: mean survival time, dose: 50.0 mg/kg/injection, schedule: Q01DX009 (ip), vehicle: saline
[7] = endpoint: mean survival time, dose: 100.0 mg/kg/injection, schedule: Q01DX009 (ip), vehicle: saline
[8] = endpoint: mean survival time, dose: 100.0 mg/kg/injection, schedule: Q01DX009 (ip), vehicle: saline with Tween-80
[9] = endpoint: mean survival time, dose: 200.0 mg/kg/injection, schedule: Q01DX009 (ip), vehicle: saline with Tween-80
[10] = endpoint: mean survival time, dose: 400.0 mg/kg/injection, schedule: Q01DX009 (ip), vehicle: saline with Tween-80
[11] = endpoint: mean survival time, dose: 100.0 mg/kg/injection, schedule: Q01DX001 (ip), vehicle: saline with Tween-80
[12] = endpoint: mean survival time, dose: 200.0 mg/kg/injection, schedule: Q01DX001 (ip), vehicle: saline with Tween-80
[13] = endpoint: mean survival time, dose: 400.0 mg/kg/injection, schedule: Q01DX001 (ip), vehicle: saline with Tween-80
[14] = endpoint: mean survival time, dose: 100.0 mg/kg/injection, schedule: Q01DX001 (ip), vehicle: saline
[15] = endpoint: mean survival time, dose: 200.0 mg/kg/injection, schedule: Q01DX001 (ip), vehicle: saline
[16] = endpoint: mean survival time, dose: 400.0 mg/kg/injection, schedule: Q01DX001 (ip), vehicle: saline

Measured: T/C

CC(=O)OC1CCC2(C)C(=CCC3C2CCC2(C)C(C(C)CCCC(C)(C)O)CCC32)C1 (stereo not drawn)
inactive: [1] 97 % of control | [2] 89 % of control | [3] 94 % of control

CC(C)CC(NC(=O)C(O)C(N)Cc1ccccc1)C(=O)O (stereo not drawn)
inactive: endpoint: mean survival time, dose: 10.0 micrograms/kg/injection, schedule: Q01DX005 (oral), vehicle: saline 96 % of control | endpoint: mean survival time, dose: 100.0 micrograms/kg/injection, schedule: Q01DX005 (oral), vehicle: saline 100 % of control | endpoint: median survival time, dose: 10.0 micrograms/mouse/injection, schedule: Q01DX010 (oral), vehicle: saline 97 % of control | endpoint: median survival time, dose: 100.0 micrograms/mouse/injection, schedule: Q01DX010 (oral), vehicle: saline 95 % of control

COc1ccc(O)cc1C
inactive: endpoint: mean survival time, dose: 100.0 mg/kg/injection, schedule: Q01DX009 (ip), vehicle: other 96 % of control | endpoint: mean survival time, dose: 200.0 mg/kg/injection, schedule: Q01DX009 (ip), vehicle: other 102 % of control | endpoint: mean survival time, dose: 400.0 mg/kg/injection, schedule: Q01DX009 (ip), vehicle: other 98 % of control

CC(CC(=O)Nc1ccc(S(=O)(=O)F)cc1)c1ccc(N2C(N)=NC(N)=NC2(C)C)cc1 (stereo not drawn)
inactive: [4] 109 % of control | [5] 109 % of control | [6] 113 % of control | [7] 113 % of control | endpoint: mean survival time, dose: 100.0 mg/kg/injection, schedule: Q#A X018 (ip), vehicle: saline 116 % of control | endpoint: mean survival time, dose: 150.0 mg/kg/injection, schedule: Q#A X018 (ip), vehicle: saline 119 % of control | endpoint: mean survival time, dose: 200.0 mg/kg/injection, schedule: Q01DX009 (ip), vehicle: saline 113 % of control and 121 % of control | endpoint: mean survival time, dose: 300.0 mg/kg/injection, schedule: Q01DX009 (ip), vehicle: saline 118 % of control | endpoint: mean survival time, dose: 400.0 mg/kg/injection, schedule: Q01DX009 (ip), vehicle: saline 124 % of control

CCOC(=O)CCl
inactive: endpoint: mean survival time, dose: 100.0 mg/kg/injection, schedule: Q04DX003 (ip), vehicle: other 95 % of control | endpoint: mean survival time, dose: 200.0 mg/kg/injection, schedule: Q04DX003 (ip), vehicle: other 90 % of control

NC(CCC(=O)NC(CS)C(=O)NCC(=O)O)C(=O)O (stereo not drawn)
inactive: endpoint: median survival time, dose: 25.0 mg/kg/injection, schedule: Q01DX009 (ip), vehicle: saline 100 % of control | endpoint: median survival time, dose: 50.0 mg/kg/injection, schedule: Q01DX009 (ip), vehicle: saline 110 % of control | endpoint: median survival time, dose: 100.0 mg/kg/injection, schedule: Q01DX009 (ip), vehicle: saline 104 % of control | endpoint: median survival time, dose: 200.0 mg/kg/injection, schedule: Q01DX009 (ip), vehicle: saline 104 % of control | endpoint: median survival time, dose: 400.0 mg/kg/injection, schedule: Q01DX009 (ip), vehicle: saline 94 % of control

O=C(OCC1CCN2CCCC12)c1ccccc1 (stereo not drawn)
inactive: [4] 88 % of control | [5] 91 % of control | [6] 91 % of control

CC1(C)N=C(N)N=C(N)N1c1ccccc1Cl
inactive: endpoint: mean survival time, dose: 25.0 mg/kg/injection, schedule: Q04DX002 (ip), vehicle: saline 103 % of control | endpoint: mean survival time, dose: 50.0 mg/kg/injection, schedule: Q04DX002 (ip), vehicle: saline 100 % of control

Cc1ccc(OS(=O)(=O)c2ccc(C)cc2)cc1
inactive: [8] 97 % of control | [1] 96 % of control | [9] 100 % of control | [2] 93 % of control | [10] 96 % of control | [3] 98 % of control

O=S(=O)(/C=C\c1ccccc1)/C=C/c1ccccc1
inactive: [1] 91 % of control | [3] 86 % of control

Cc1nc2ccc(Cl)cc2c(=O)o1
inactive: [8] 103 % of control | [1] 96 % of control | [9] 103 % of control | [2] 93 % of control | [10] 96 % of control | [3] 93 % of control

C1CCC(C2CCCC[N-]2)[N-]C1.[Cl][Pt].[NH-]C(CC(N)=O)C(=O)O (stereo not drawn)
inactive: endpoint: median survival time, dose: 10.0 mg/kg/injection, schedule: Q04DX003 (ip), vehicle: saline 101 % of control | endpoint: median survival time, dose: 20.0 mg/kg/injection, schedule: Q04DX003 (ip), vehicle: saline 93 % of control | endpoint: median survival time, dose: 40.0 mg/kg/injection, schedule: Q04DX003 (ip), vehicle: saline 98 % of control | endpoint: median survival time, dose: 80.0 mg/kg/injection, schedule: Q04DX003 (ip), vehicle: saline 91 % of control and 104 % of control | endpoint: median survival time, dose: 160.0 mg/kg/injection, schedule: Q04DX003 (ip), vehicle: saline 95 % of control | endpoint: median survival time, dose: 320.0 mg/kg/injection, schedule: Q04DX003 (ip), vehicle: saline 86 % of control

CC(/C=N/O)=N\O.CC(/C=N/O)=N\O.[Pd]
inactive: endpoint: mean survival time, dose: 1.56 mg/kg/injection, schedule: Q01DX009 (ip), vehicle: saline with Tween-80 98 % of control | endpoint: mean survival time, dose: 1.56 mg/kg/injection, schedule: Q04DX002 (ip), vehicle: saline with Tween-80 100 % of control | endpoint: mean survival time, dose: 3.13 mg/kg/injection, schedule: Q01DX009 (ip), vehicle: saline with Tween-80 95 % of control | endpoint: mean survival time, dose: 3.13 mg/kg/injection, schedule: Q04DX002 (ip), vehicle: saline with Tween-80 95 % of control | endpoint: mean survival time, dose: 6.25 mg/kg/injection, schedule: Q04DX002 (ip), vehicle: saline with Tween-80 88 % of control | endpoint: mean survival time, dose: 25.0 mg/kg/injection, schedule: Q04DX002 (ip), vehicle: saline with Tween-80 102 % of control

CCC[As](=O)(O)CCC
inactive: [5] 103 % of control | [6] 108 % of control | [7] 98 % of control

Cn1c(CS)nc2ccccc21
inactive: endpoint: mean survival time, dose: 100.0 mg/kg/injection, schedule: Q04DX002 (ip), vehicle: saline with Tween-80 101 % of control | endpoint: mean survival time, dose: 200.0 mg/kg/injection, schedule: Q04DX002 (ip), vehicle: saline with Tween-80 93 % of control

OC(c1ccccc1)C1(c2ccccc2)OCCO1 (stereo not drawn)
inactive: [8] 95 % of control | [1] 97 % of control | [9] 90 % of control | [2] 92 % of control | [10] 92 % of control | [3] 98 % of control

N#Cc1nc(N)nc2c1ncn2-c1ccc(C(N)=O)cc1
inactive: [11] 96 % of control | [12] 101 % of control | [13] 90 % of control

CC(C)=C(CO)CCC(C)C
inactive: [1] 100 % of control | [2] 103 % of control

Cc1nc(N)n[nH]1
inactive: [8] 92 % of control | endpoint: mean survival time, dose: 100.0 mg/kg/injection, schedule: Q04DX003 (ip), vehicle: saline 102 % of control | [9] 97 % of control | endpoint: mean survival time, dose: 200.0 mg/kg/injection, schedule: Q04DX003 (ip), vehicle: saline 100 % of control | [10] 88 % of control | endpoint: mean survival time, dose: 400.0 mg/kg/injection, schedule: Q04DX003 (ip), vehicle: saline 96 % of control

CCCCCCCCCCCCCCCCCCOCC(CO)OC (stereo not drawn)
inactive: endpoint: median survival time, dose: 25.0 mg/kg/injection, schedule: Q01DX009 (ip), vehicle: saline with Tween-80 104 % of control | endpoint: median survival time, dose: 50.0 mg/kg/injection, schedule: Q01DX009 (ip), vehicle: saline with Tween-80 101 % of control | endpoint: median survival time, dose: 100.0 mg/kg/injection, schedule: Q01DX009 (ip), vehicle: saline with Tween-80 103 % of control | endpoint: median survival time, dose: 200.0 mg/kg/injection, schedule: Q01DX009 (ip), vehicle: saline with Tween-80 102 % of control

COC(=O)CC(CC(=O)OC)N1CCCC1
inactive: [14] 102 % of control | [15] 102 % of control | [16] 102 % of control

CC(=O)Oc1c(C)ncc(C=O)c1C
inactive: endpoint: mean survival time, dose: 75.0 mg/kg/injection, schedule: Q01DX001 (ip), vehicle: other 101 % of control | endpoint: mean survival time, dose: 150.0 mg/kg/injection, schedule: Q01DX001 (ip), vehicle: other 100 % of control

Cc1nc2scc(C)c2c(=S)[nH]1
inactive: [11] 96 % of control | [12] 97 % of control | [13] 88 % of control

CCOC(=O)C=C(c1ccc(OC)c(OC)c1)c1ccc(OC)c(OC)c1
inactive: [14] 108 % of control | [15] 100 % of control | [16] 102 % of control

CC(=O)Nc1ccc(C(=O)C=O)cc1
inactive: endpoint: mean survival time, dose: 6.25 mg/kg/injection, schedule: Q01DX009 (ip), vehicle: saline with Tween-80 103 % of control | endpoint: mean survival time, dose: 12.5 mg/kg/injection, schedule: Q01DX009 (ip), vehicle: saline with Tween-80 110 % of control | endpoint: mean survival time, dose: 25.0 mg/kg/injection, schedule: Q01DX009 (ip), vehicle: saline with Tween-80 107 % of control | endpoint: mean survival time, dose: 50.0 mg/kg/injection, schedule: Q01DX009 (ip), vehicle: saline with Tween-80 113 % of control | [8] 110 % of control | [9] 103 % of control

CCCC(C)(CCC)OC(=O)Nc1cccc2ccccc12
inactive: [11] 92 % of control | [12] 92 % of control | [13] 92 % of control
